Results on eight compounds are retold here after patent publication US5068325A, “4,5,7,8-tetrahydro-6H-thiazolo[5,4-d]azepines, their preparation and their use as pharmaceutical compositions” (priority 1988, dated 1991).

Type in all cases: binding
The target of one assay is dopamine D2-receptors (Rattus norvegicus, UniProt P61169). Put plainly: affinity for dopamine D2-receptors by displacement experiments with [3H]-spiperone (rat striatum membranes). Conditions: for Ki: [3H]-spiperone, high-affinity form of the dopamine receptor; for α2-IC50 / D2-Ki: relative affinity for dopamine-D2 receptors compared with α2-adrenoceptors, the higher, the higher the D2/α2 selectivity.
Sequence of dopamine D2-receptors (P61169 whole entry): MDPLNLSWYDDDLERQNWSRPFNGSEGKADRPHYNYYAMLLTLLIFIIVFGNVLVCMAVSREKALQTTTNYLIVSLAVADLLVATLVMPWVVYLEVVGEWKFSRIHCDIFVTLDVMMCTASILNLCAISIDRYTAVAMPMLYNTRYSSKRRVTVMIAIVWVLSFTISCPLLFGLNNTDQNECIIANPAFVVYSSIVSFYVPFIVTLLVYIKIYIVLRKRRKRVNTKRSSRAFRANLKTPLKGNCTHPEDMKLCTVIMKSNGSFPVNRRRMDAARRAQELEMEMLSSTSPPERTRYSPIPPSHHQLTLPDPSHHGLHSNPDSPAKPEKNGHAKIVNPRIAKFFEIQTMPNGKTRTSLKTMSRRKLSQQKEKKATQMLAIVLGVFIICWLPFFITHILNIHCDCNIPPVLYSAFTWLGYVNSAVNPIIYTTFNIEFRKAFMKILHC

The target in assay [1] is T1, serotonin-2(5-HT2)-receptors (Rattus norvegicus, UniProt P14842).
T1 construct: The frontal cortex was dissected out and placed in ice cold 0.32 M saccharose solution; from tissue; host or cells: rat frontal cortex homogenate (Chbb:Thom strain)
T1 sequence (P14842 whole entry): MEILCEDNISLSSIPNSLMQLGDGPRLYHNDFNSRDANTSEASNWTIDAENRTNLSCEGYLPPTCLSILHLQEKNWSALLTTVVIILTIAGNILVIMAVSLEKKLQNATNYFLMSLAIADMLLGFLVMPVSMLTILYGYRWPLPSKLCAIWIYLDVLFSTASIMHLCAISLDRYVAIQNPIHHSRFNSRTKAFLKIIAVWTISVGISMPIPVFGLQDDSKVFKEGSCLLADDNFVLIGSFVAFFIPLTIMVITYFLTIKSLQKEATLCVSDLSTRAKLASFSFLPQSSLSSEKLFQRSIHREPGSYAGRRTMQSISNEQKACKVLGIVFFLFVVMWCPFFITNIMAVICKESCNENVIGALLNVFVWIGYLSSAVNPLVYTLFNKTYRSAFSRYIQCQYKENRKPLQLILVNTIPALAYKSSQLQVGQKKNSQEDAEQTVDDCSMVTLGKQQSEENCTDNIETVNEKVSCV
Put plainly: affinity for serotonin-2 (5-HT2) receptors by displacement experiments with [3H]-spiperone (rat frontal cortex). As for the experimental part:
Specific binding is obtained from total binding minus non-specific binding.
A male rat (Chbb:Thom strain, about 200 g) was decapitated. The brain was removed. The frontal cortex was dissected out and placed in ice cold 0.32 M saccharose solution; its moist weight was determined. It was homogenised in 10 times the volume (0.32 M) of saccharose solution for 1 minute at 800 rpm in a Potter S (made by Braun of Melsungen). The homogenised material was centrifuged for 10 minutes at 1000×g (=3,000 rpm with a rotor 8×38 ml) in a refrigerated centrifuge. The supernatant was decanted off and homogenised (Polytron, position 5, 1 minute); the sediment was discarded. 5 ml (=0.5 g moist weight) of the tissue suspension thus obtained were made up to 40 ml with buffer (50 mm tris-HCl; pH=7.7 at ambient temperature).
0.8 ml of the buffered homogenised tissue (=10 mg moist weight) were incubated with 0.1 ml of a solution of [^3 H]-spiperone (about 0.2 nmol/1 final concentration) and with 0.1 ml of a solution of the test substance (increasing concentration) for 15 minutes at 37° C. (triple measurement). Incubation was stopped by rapid filtering through a Whatman GF/B filter; rinsing was carried out 3 times, each time with 5 ml of ice cold buffer within a maximum of 10 seconds (Filter Prep Messrs. Ismatec). The radioactivity of the filters was determined by liquid scintillation measurement.
The specific binding is obtained from the total binding minus the non-specific binding. The averages of the triple measurements are entered in a system of coordinates as in 1.3. The IC50 value is the concentration which inhibits the specific binding of [^3 H]-spiperone by 50%.

Another assay deals with T2, dopamine D1-receptors (Rattus norvegicus, UniProt P18901).
T2 construct: The striata were dissected out, weighed and homogenised in 25 volumes of tris buffer; from tissue; host or cells: rat striatum membranes (Chbb:Thom strain), prepared as for the D2 assay
T2 sequence (P18901 whole entry): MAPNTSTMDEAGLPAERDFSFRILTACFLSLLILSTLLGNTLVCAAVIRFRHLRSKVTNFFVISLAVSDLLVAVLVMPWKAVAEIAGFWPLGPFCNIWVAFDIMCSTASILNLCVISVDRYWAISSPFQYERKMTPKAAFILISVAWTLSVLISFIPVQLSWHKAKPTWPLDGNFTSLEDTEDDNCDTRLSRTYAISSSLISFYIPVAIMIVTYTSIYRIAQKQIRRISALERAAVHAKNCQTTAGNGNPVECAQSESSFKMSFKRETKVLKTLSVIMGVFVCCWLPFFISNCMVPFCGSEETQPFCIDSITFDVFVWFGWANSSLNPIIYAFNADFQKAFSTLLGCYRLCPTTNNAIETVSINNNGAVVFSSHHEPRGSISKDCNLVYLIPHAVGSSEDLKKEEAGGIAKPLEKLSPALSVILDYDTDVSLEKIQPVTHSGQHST
Kind of assay: affinity for dopamine D1-receptors by displacement experiments with [3H]-Sch 23390. As for the experimental part:
Male rats (of the Chbb:Thom strain weighing about 200 g) were killed by a blow to the back of the neck. The brains were removed and dissected on ice. The striata were dissected out, weighed and homogenised in 25 volumes of tris buffer (50 mM tris-HCl, 1 mM EDTA, 5 mM MgCl2 and 1 mM ascorbic acid) for 30 seconds in an Ultra-Turrax at maximum speed, followed by 10 cycles in a Potter-Elvehjem at 1400 rpm. The pellet obtained after centrifuging at 50,000×g at 4° C. for 15 minutes was again taken up in 25 ml of tris buffer and centrifuged under the above conditions. The supernatant was discarded and the pellet obtained was incubated in 25 ml of tris buffer at 37° C. for 30 minutes and then centrifuged again at 50,000×g at 4° C. for 15 minutes. Finally, the pellet obtained was mixed with tris buffer to obtain a homogenate dilution of 1:500 (based on the weight of the striata).
Displacement curves were obtained from the data using the TOPFIT programming package (G. Heinzel in "Pharmacokinetics During Drug Development: Data Analysis and Evaluation Techniques", G. Bozler and J. M. van Rossum Eds., G. Fischer Verlag, Stuttgart 1982, 207).
7. Determining the affinity for dopamine D1-receptors by displacement experiments with [^3 H1-Sch 23390
The membrane preparation and data analysis were carried out as described for determining the affinity for dopamine D2 - receptors.
1 ml aliquots of the membrane preparation were incubated for 1 hour at ambient temperature with 1 ml of a solution of 0.25 nM [^3 H]-Sch 23390 (2.44 TBq/mmol, Messrs. DuPont NEN) and with increasing concentrations of the test substance (10^-11 to 10^-4 M). Incubation was ended by the addition of 5 ml of ice cold tris buffer and filtration through Whatman GF/B filters. The filters were washed twice, each time with 5 ml of ice cold buffer. The radioactivity of the filters was determined by liquid scintillation measurement in Instagel(R) (Messrs. Canberra Packard).
The non-specific binding was determined in the presence of 10^-6 M (-)-butaclamol (Research Biochemicals Inc.).

A word on the Ki: it is the dissociation constant of the complex between target and ligand, obtained from inhibition or displacement. The low end stands for higher affinity, the high end for lower affinity. `C=CCN1CCc2nc(N)sc2CC1` [Compound A, reference compound]: the values for the Ki (at dopamine D2-receptors; in assay [1]; at dopamine D1-receptors) were 0.005 µM, 20.2 µM and 12 µM, respectively. For the same compound, the “α2-IC50 / D2-Ki” value on dopamine D2-receptors was 4.8.

Regarding `N#Cc1ccc(C=CCN2CCc3nc(N)sc3CC2)cc1` [Example 14b, 2-Amino-6-(3-(4-cyano-phenyl)allyl)-4,5,7,8-tetrahydro-6H-thiazolo[5,4-d]azepine], at dopamine D2-receptors, the Ki amounted to 0.0026 µM and the “α2-IC50 / D2-Ki” value came to 192. This compound yielded an inhibitory constant (Ki) in assay [1] of 15 µM.

As to `Nc1nc2c(s1)CCN(CC=Cc1ccccc1N1CCCCC1)CC2` [Example 11p, 2-Amino-6-(3-(2-(1-piperidino)phenyl)-2-propen-1-yl)-4,5,7,8-tetrahydro-6H-thiazolo[5,4-d]azepine], the Ki on dopamine D2-receptors was 0.0099 µM; in assay [1], 0.558 µM; at dopamine D1-receptors it was 0.92 µM. Moreover, the “α2-IC50 / D2-Ki” value on dopamine D2-receptors is 303.

In the case of `Nc1nc2c(s1)CCN(CC=Cc1cccc3ccccc13)CC2` [Example 4t, 2-Amino-6-(3-(1-naphthyl)allyl)-4,5,7,8-tetrahydro-6H-thiazolo[5,4-d]azepine], the Ki at dopamine D2-receptors amounted to 0.0031 µM; in assay [1], 0.026 µM; on dopamine D1-receptors, 0.21 µM. Further, the “α2-IC50 / D2-Ki” value on dopamine D2-receptors amounted to 148.

In the case of `Nc1nc2c(s1)CCN(CC=Cc1cc3ccccc3cn1)CC2` [Example 24a, 2-Amino-6-(3-(3-isoquinolinyl)allyl)-4,5,7,8-tetrahydro-6H-thiazolo[5,4-d]azepine], the Ki on dopamine D2-receptors was determined as 0.0017 µM; in assay [1] it was 0.56 µM; at dopamine D1-receptors it was 3 µM. The “α2-IC50 / D2-Ki” value on dopamine D2-receptors stood at 529.

As to `Nc1nc2c(s1)CCN(CC=Cc1cccc(OCc3ccccc3)c1)CC2` [Example 4y, 2-Amino-6-(3-(3-benzyloxy-phenyl)allyl)-4,5,7,8-tetrahydro-6H-thiazolo[5,4-d]azepine], the Ki on dopamine D2-receptors was determined as 0.00073 µM; in assay [1], 0.47 µM; on dopamine D1-receptors, 1.5 µM. Moreover, the “α2-IC50 / D2-Ki” value at dopamine D2-receptors was 410.

As to `Nc1nc2c(s1)CCN(CC=Cc1nccc3ccccc13)CC2` [Example 7a, 2-Amino-6-(3-(1-isoquinolinyl)allyl)-4,5,7,8-tetrahydro-6H-thiazolo[5,4-d]azepine], the figures for the Ki (on dopamine D2-receptors; in assay [1]; at dopamine D1-receptors) were 0.00092 µM, 0.12 µM and 0.18 µM, respectively. For the same compound, at dopamine D2-receptors, the “α2-IC50 / D2-Ki” value worked out at 3370.

Regarding `Nc1nc2c(s1)CCN(Cc1ccc(Cl)cc1)CC2` [Compound B, reference compound], the Ki at dopamine D2-receptors is 0.013 µM; in assay [1], 18.4 µM; on dopamine D1-receptors, 11 µM. For the same compound, the “α2-IC50 / D2-Ki” value at dopamine D2-receptors stood at 31.5.
